# US20020128269A1, “Substituted heterocyclic compounds for treating multidrug resistance” (priority 2000, published 2002)
# System: NIH-MDR1-G185 cells
# Assay: Fluorescent Substrate Accumulation Assay (BODIPY-FL Taxol accumulation)
# Format: cell-based
# Details: fluorescence in NIH-MDR1-G185 cells in presence / absence of modulator; BODIPY-FL Taxol 500 nM, 40 min at 37° C; modulator final concentration of 10 microliters (so in the source)
# Method: NIH-MDR1-G185 cells (obtained from M. Gottesman, NIH) were harvested and resuspended in RPMI-1640 containing L-glutamine, 10% Cosmic Calf Serum and penicillin-streptomycin. Cell suspension aliquots of 175 microliters (1×10^5 cells) were added to individual wells of a 96 well microtiter plate and preincubated for 15 min at 37° C with 20 microliters MDR modulator diluted in cell culture media to give a final concentration of 10 microliters. Control wells received no modulating agent. BODIPY-FL Taxol (Molecular Probes, Eugene, Oreg.) was added to each well in 10 microliter aliquots to give a final concentration of 500 nM and cells were incubated for 40 min at 37° C. Cells were centrifuged at 100× g for 5 min at 4° C. and the cell pellet washed with 200 microliters cold PBS to remove fluorescent medium from wells. Cells were centrifuged once more, media removed, and cells resuspended in 200 microliters cold PBS. Fluorescence accumulation was measured in a fluorescence plate reader fitted with an excitation filter of 485 nm and an emission filter of 538 nm. BODIPY-FL taxol accumulation in the cells was calculated as follows:
# Accumulation Index=(fluorescence in NIH-MDR1-G185 cells in the presence of modulator )/(fluorescence in NIH-MDR1-G185 cells in absence of modulator)
# Accumulation Index of various compounds prepared above was tested according to the method in Reference Example 3.
smiles,measurement,value
"O=C(NC(CCCc1ccccc1)CCCc1ccccc1)C1CN(C[C@@H](O)COc2cccc3ncccc23)CCN1C(=O)COCc1ccccc1 (stereo partly drawn) [Compound 38, 1-(Benzyloxyacetyl)-4-{1-[2-(R)-hydroxy-3-(quinolin-5-yloxy)-propyl]}-piperazine-2-carboxylic Acid [4-phenyl-1-(3-phenyl-propyl)-butyl]-amide]",Accumulation Index,5
